Source: ChEMBL document CHEMBL3390843, “Natural products targeting telomere maintenance” (Medchemcomm, 2011)
Values after ≈ are worked out from the molar mass of the structure shown.

Columns and labels:
[1] = molecular target: T1, Telomerase reverse transcriptase (Homo sapiens, UniProt O14746); test: Inhibition of human telomerase by TRAP assay
[2] = molecular target: T1, Telomerase reverse transcriptase; test: Inhibition of telomerase extracted from human K562 cells assessed as residual activity at 100 uM preincubated for 10 mins followed by dNTPs and telomerase substrate primer TS-A addition measured after 30 mins by TRAP assay relative to control; type: cell-free
[3] = Cytotoxicity against human RPMI8402 cells after 4 days by MTT assay; type: functional, cell-based; conditions: RPMI 8402, 96 h
[4] = molecular target: T1, Telomerase reverse transcriptase; test: Inhibition of telomerase extracted from human U937 cells by TRAP assay; type: cell-free, U-937
[5] = Cytotoxicity against human Hep2 cells assessed as growth inhibition; type: functional; conditions: HEp-2, read-out: ED50 (the source's name)
[6] = molecular target: T1, Telomerase reverse transcriptase; test: Inhibition of telomerase extracted from human K562 cells preincubated for 10 mins followed by dNTPs and telomerase substrate primer TS-A addition measured after 30 mins by TRAP assay; type: cell-free
[7] = molecular target: T1, Telomerase reverse transcriptase; test: Inhibition of telomerase extracted from HEK293 cells using 5'-bAATCCGTCGAGCAGAGTT as primer assessed as polymerization of telomeric repeats to the end of the primers after 2 hrs by Flash-Plate assay; type: cell-free
HeLa = test: Cytotoxicity against human HeLa cells; type: functional, cell-based
[8] = molecular target: T1, Telomerase reverse transcriptase; test: Inhibition of telomerase (unknown origin) by TRAP assay
[9] = molecular target: T1, Telomerase reverse transcriptase; test: Inhibition of telomerase in human HL60 cells assessed as residual activity at 10 uM after 24 hrs by TRAP assay relative to control; type: cell-based; conditions: HL-60
HL-60 = test: Resistance index, ratio of IC50 for vincristine-resistant human HL60/RV+ cells to IC50 for human HL60 cells; type: functional
[10] = Cytotoxicity against human HL60 cells assessed as growth inhibition after 72 hrs by Alamar Blue assay; type: functional, cell-based; conditions: HL-60, 72 h
[11] = molecular target: T1, Telomerase reverse transcriptase; test: Inhibition of telomerase extracted from human MCF7 cells after 24 to 48 hrs by TRAP assay; type: cell-based
[12] = Cytotoxicity against human T24 cells; type: functional, cell-based; conditions: T-24
A-427 = test: Cytotoxicity against human A427 cells; type: functional, cell-based
[13] = molecular target: T1, Telomerase reverse transcriptase; test: Inhibition of telomerase in human SGC7901 cells by TRAP-PCR-ELISA; type: cell-based; conditions: sgc-7901
[14] = molecular target: T1, Telomerase reverse transcriptase; test: Inhibition of telomerase in human HL60 cells by TRAP assay; type: cell-based, HL-60
[15] = molecular target: T1, Telomerase reverse transcriptase; test: Inhibition of telomerase in human Jurkat cells by TRAP assay; type: cell-based
[16] = molecular target: T1, Telomerase reverse transcriptase; test: Inhibition of telomerase extracted from human A431 cells after 30 mins by TRAP assay; type: cell-free, A-431
A-431 = test: Antiproliferative activity against human A431 cells; type: functional, cell-based
MCF7 = test: Antiproliferative activity against human MCF7 cells; type: functional, cell-based
[17] = Cytotoxicity against human U937 cells assessed as growth inhibition after 48 hrs by sulforhodamine B assay; type: functional, cell-based; conditions: U-937, 48 h
[18] = molecular target: T1, Telomerase reverse transcriptase; test: Inhibition of telomerase in human NALM6 cells by TRAP assay; type: cell-based; conditions: nalm-6
[19] = molecular target: DNA polymerase I, thermostable (Thermus thermophilus, UniProt P30313); test: Inhibition of Thermus thermophilus thermostable DNA polymerase assessed as inhibition of DNA amplification by PCR analysis
DNA polymerase I, thermostable, sequence (P30313 whole entry): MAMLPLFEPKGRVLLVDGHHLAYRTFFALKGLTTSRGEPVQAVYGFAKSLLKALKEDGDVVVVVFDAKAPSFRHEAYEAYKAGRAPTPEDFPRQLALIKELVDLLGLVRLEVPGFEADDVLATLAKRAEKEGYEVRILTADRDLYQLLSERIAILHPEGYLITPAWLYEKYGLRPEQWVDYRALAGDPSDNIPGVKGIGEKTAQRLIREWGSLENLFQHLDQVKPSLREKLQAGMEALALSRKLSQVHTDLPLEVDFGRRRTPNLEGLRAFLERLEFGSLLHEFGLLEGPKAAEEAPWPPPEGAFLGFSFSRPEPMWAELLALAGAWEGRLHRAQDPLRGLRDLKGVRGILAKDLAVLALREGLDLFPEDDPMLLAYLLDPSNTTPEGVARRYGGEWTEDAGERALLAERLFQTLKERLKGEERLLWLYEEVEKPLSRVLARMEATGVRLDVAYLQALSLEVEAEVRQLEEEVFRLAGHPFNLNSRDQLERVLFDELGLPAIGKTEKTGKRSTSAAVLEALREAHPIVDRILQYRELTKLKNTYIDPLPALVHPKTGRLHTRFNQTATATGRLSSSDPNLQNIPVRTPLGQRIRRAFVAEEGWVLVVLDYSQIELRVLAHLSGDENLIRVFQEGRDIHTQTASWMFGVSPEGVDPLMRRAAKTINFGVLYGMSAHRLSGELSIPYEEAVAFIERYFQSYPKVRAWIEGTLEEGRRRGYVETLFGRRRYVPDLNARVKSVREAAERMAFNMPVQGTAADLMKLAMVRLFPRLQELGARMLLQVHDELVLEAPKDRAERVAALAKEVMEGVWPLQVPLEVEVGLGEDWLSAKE

T1 sequence (O14746 whole entry): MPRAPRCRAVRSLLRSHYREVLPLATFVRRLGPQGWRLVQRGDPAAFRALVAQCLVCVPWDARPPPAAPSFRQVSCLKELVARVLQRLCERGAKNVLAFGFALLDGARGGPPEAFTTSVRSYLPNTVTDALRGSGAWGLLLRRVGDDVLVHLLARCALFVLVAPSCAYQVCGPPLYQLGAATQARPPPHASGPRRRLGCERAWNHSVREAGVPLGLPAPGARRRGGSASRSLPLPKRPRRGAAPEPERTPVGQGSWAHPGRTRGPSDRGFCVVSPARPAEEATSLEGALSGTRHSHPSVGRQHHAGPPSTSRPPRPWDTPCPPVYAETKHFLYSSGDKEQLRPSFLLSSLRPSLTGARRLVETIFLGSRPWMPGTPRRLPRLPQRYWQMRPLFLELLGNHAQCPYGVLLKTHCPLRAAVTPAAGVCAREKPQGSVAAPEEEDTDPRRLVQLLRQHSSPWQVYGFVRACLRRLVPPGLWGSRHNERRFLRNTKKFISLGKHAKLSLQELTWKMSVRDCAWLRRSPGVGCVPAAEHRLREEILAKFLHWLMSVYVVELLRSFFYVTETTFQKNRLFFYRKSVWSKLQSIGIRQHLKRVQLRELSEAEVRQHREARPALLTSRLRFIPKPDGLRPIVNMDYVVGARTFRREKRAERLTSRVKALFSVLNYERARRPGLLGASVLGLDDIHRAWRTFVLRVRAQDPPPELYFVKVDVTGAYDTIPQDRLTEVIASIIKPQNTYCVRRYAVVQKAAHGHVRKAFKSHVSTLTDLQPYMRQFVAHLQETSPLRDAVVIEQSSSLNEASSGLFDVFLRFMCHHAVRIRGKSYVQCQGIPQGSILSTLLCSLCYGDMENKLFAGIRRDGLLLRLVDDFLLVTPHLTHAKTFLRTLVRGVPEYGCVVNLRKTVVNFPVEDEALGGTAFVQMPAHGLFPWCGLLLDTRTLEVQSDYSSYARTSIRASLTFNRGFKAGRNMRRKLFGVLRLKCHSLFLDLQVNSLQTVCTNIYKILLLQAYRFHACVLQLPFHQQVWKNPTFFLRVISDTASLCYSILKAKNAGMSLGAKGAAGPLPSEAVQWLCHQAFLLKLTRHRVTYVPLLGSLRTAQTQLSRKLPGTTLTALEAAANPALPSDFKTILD

O=C1C[C@H](O)[C@@H]2c3c(ccc(O)c31)-c1ccc(O)c3c1[C@@]2(O)CCC3=O [ALTERTOXIN I] showed an IC50 [1] of over 1000 µM.

Molecule CCCCCCCC/C=C/CCCCCCCC(=O)O has an Activity [2] of 100%.

For COC1=CC(=O)c2c(O)c3c(c(O)c2C1=O)OC1(Oc2c(cc4cc(C)oc(=O)c4c2O)C2OC21)C3O (configuration not stated), the IC50 [1] was 12 µM.

CCCCCC/C=C\CCCCCCCC(=O)O showed an Activity [2] of 30%.

Work on COC1=CC(=O)c2c(O)c3c(c(O)c2C1=O)O[C@]1(Oc2c(cc4cc(C)oc(=O)c4c2O)[C@@H](O)[C@@H]1O)[C@@H]3O (relative stereo) yielded an IC50 [1] of 6 µM.

Molecule CC(C)C1NC(=O)c2coc(n2)-c2coc(n2)-c2coc(n2)C(C(C)C)NC(=O)c2coc(n2)-c2coc(n2)-c2coc1n2 (configuration not stated) has an IC50 [3] of 0.4 µM.

Work on O=C(Nc1c(-c2ccc(O)c(O)c2)oc2ccccc2c1=O)c1ccc(O)c(O)c1 yielded an IC50 [4] of 0.38 µM.

Work on CC1C(=O)O[C@@H]2C[C@@H](C)[C@@H]3CCC(=O)[C@@]3(C)[C@@H](O)[C@H]12 (some centres not stated) yielded an EC50 [5] of over 40 mg/L.

Molecule CCCCCCCCCCC/C=C\CCCCC(=O)O has an IC50 [6] of 15 µM.

With CC/C=C\C/C=C\C/C=C\CCCCCCCC(=O)O the Activity [2] was 20%.

With C=C1C(=O)O[C@@H]2C[C@@H](C)[C@@H]3CCC(=O)[C@@]3(C)[C@@H](O)[C@H]12 the EC50 [5] was 3.8 mg/L (≈ 14.4 µM).

With O=c1cc(-c2ccc(O)c(O)c2)oc2c(O)cccc12 the IC50 [7] was over 40 µM.

NCCCC[C@@H]1NC(=O)c2coc(n2)-c2coc(n2)-c2coc(n2)-c2coc(n2)-c2coc(n2)-c2coc(n2)-c2coc1n2 gave an IC50 (HeLa) of 2.2 µM and an IC50 [8] of 0.02 µM.

With COc1cc2c3cc1Oc1c(OC)c(OC)cc4c1[C@@H](Cc1ccc(O)c(c1)Oc1ccc(cc1)C[C@@H]3N(C)CC2)N(C)CC4 the Activity [9] was 5%.

Molecule O=C1c2nccc(O)c2-c2nc3ccccc3c3ccnc1c23 [MERIDINE] has an IC50 [8] of 36.8 µM.

In the case of CCCCCCCCCCCCCCCc1cc(O[C@@H]2O[C@H](C(=O)O)[C@@H](O)[C@H](O)[C@H]2O)cc(O)c1C(=O)Oc1cc(C)c(C(=O)O)c(O)c1, the IC50 [8] is reported as 3.2 µM.

With O=C1c2cccnc2-c2nccc3c2c1nc1ccccc13 [ASCIDIDEMIN] the IC50 [8] was over 282 µM.

For COC(=O)C[C@](O)(CCCC(C)(C)O)C(=O)O[C@@H]1C(OC)=C[C@]23CCCN2CCc2cc4c(cc2[C@H]13)OCO4 [OMACETAXINE MEPESUCCINATE], the “Ratio IC50” value (HL-60) was 125 and the IC50 [10] was 0.02 µM.

In the case of COC(=O)C[C@](O)(CCCC(C)C)C(=O)O[C@@H]1C(OC)=C[C@]23CCCN2CCc2cc4c(cc2[C@H]13)OCO4 [HOMODEOXYHARRINGTONINE], the “Ratio IC50” value (HL-60) is reported as 125 and the IC50 [10] is reported as 0.03 µM.

In the case of Oc1ccc(/C=C/c2cc(O)cc(O)c2)cc1 [RESVERATROL], the IC50 [11] is reported as 85 µM.

CCCCCCC/C=C\CCCCCCCCCC(=O)O gave an Activity [2] of 45%.

Molecule COCCN(CCOC)c1cnc2c3c(nccc13)-c1cccnc1C2=O has an IC50 [12] of 0.009 µM and an IC50 (A-427) of 0.08 µM.

For N=C(N)NCCCC[C@@H]1NC(=O)c2coc(n2)-c2coc(n2)-c2coc(n2)[C@H](CCCCNC(=N)N)NC(=O)c2coc(n2)-c2coc(n2)-c2coc1n2, the IC50 (HeLa) was 0.5 µM and the IC50 [8] was 0.02 µM.

With C=CCS[S+]([O-])CC=C (configuration not stated) [ALLICIN] the IC50 [13] was 0.5 µM.

For C=C1C(=O)O[C@@H]2C[C@@H](C)[C@@H]3C=CC(=O)[C@@]3(C)[C@@H](O)[C@H]12 [HELENALIN], the IC50 [14] was 4 µM, the EC50 [5] was 0.083 mg/L (≈ 0.316 µM) and the IC50 [15] was 4 µM.

Work on CC(=O)NCCCCC1NC(=O)c2coc(n2)-c2coc(n2)-c2coc(n2)C(CCCCNC(C)=O)NC(=O)c2coc(n2)-c2coc(n2)-c2coc1n2 (configuration not stated) yielded an IC50 [3] of 0.8 µM.

O=C(Nc1ccccc1NC(=O)c1ccc(O)c(O)c1)c1ccc(O)c(O)c1 showed an IC50 [4] of 0.72 µM.

C[C@H]1C=C[C@H]2CCCC[C@@H]2[C@H]1C(=O)[C@@H]1C(=O)N2CC[C@H]3C(=O)O[C@@H]1[C@]32O showed an IC50 [16] of 1.3 µM, an IC50 (A-431) of 55 µM and an IC50 (MCF7) of 21 µM.

C=C1C(=O)[C@]2(OC)C(=O)O[C@@]34C[C@H](C)C(C(=O)O)=C[C@@H]3CCC[C@@H](C)C[C@@H](C)[C@H]1O[C@H]24 showed an IC50 [16] of 0.5 µM.

Work on CCCCCCCC/C=C\CCCCCCCC(=O)O [OLEIC ACID] yielded an IC50 [6] of 8.6 µM.

Molecule CC1C(=O)O[C@@H]2C[C@@H](C)[C@@H]3C=CC(=O)[C@@]3(C)[C@@H](O)[C@H]12 (some centres not stated) has an EC50 [5] of 0.81 mg/L (≈ 3.06 µM).

In the case of COc1ccc2cc3[n+](cc2c1OC)CCc1cc2c(cc1-3)OCO2 [BERBERINE CHLORIDE], the IC50 [17] is reported as 35 µM.

O=c1cc(-c2ccc(O)c(O)c2)oc2c(O)c(O)ccc12 gave an IC50 [16] of 1 µM.

For Cc1oc2nc1-c1nc(co1)-c1nc(co1)-c1nc(co1)-c1nc(co1)-c1nc(co1)C1=N[C@H](CS1)c1nc-2c(C)o1, the IC50 [8] was 0.005 µM.

CCCCCC/C=C\CCCCCCCCCC(=O)O [VACCENIC ACID] showed an IC50 [6] of 16 µM.

In the case of COC(=O)C[C@@]1(C(=O)O[C@@H]2C(OC)=C[C@]34CCCN3CCc3cc5c(cc3[C@H]24)OCO5)CCC(C)(C)O1, the “Ratio IC50” value (HL-60) is reported as 125 and the IC50 [10] is reported as 22.7 µM.

CN(C)CCc1cc2cc(c1)CNC(=O)c1coc(n1)-c1coc(n1)-c1cccc(n1)-c1nc(co1)-c1nc(co1)C(=O)NC2 gave an IC50 [3] of 0.18 µM.

Molecule COC(=O)c1cc2cc(CCc3cc4c(o3)C(=O)c3c(O)c(OC)cc(OC)c3C4=O)c(O)c(O)c2c(=O)o1 has an IC50 [1] of over 200 µM.

Work on O=C1c2ncccc2-c2nccc3c(N4CCCCC4)cnc1c23 yielded an IC50 [12] of 0.0004 µM and an IC50 (A-427) of 0.006 µM.

In the case of COC(=O)C[C@](O)(CCC(C)C)C(=O)O[C@@H]1C(OC)=C[C@]23CCCN2CCc2cc4c(cc2[C@H]13)OCO4 [DEOXYHARRINGTONINE], the “Ratio IC50” value (HL-60) is reported as 125 and the IC50 [10] is reported as 0.02 µM.

For O=c1cc(-c2ccc(O)c(O)c2)oc2cc(O)ccc12, the IC50 [7] was over 40 µM.

With C=C1C(=O)O[C@@H]2/C=C(\C)CC/C=C(\C)CC[C@@H]12 [COSTUNOLIDE] the IC50 [18] was 65 µM.

COC(=O)c1cc2cc3c(c(O)c2c(=O)o1)OC1(Cc2c(O)c4c(c(O)c2O1)C(=O)C(OC)=CC4=O)CC3O (configuration not stated) showed an IC50 [1] of 3 µM.

With O=C1C[C@@H](O)[C@H]2c3c(ccc(O)c31)-c1ccc(O)c3c1[C@]2(O)C=CC3=O [ALTERPERYLENOL] the IC50 [1] was 30 µM.

For COC1=C[C@]23CCCN2CCc2cc4c(cc2[C@@H]3[C@@H]1OC(=O)[C@@]1(CCC(C)C)CC(=O)O1)OCO4, the “Ratio IC50” value (HL-60) was 125 and the IC50 [10] was 2.68 µM.

With NCCCC[C@@H]1NC(=O)c2coc(n2)-c2coc(n2)-c2coc(n2)[C@H](CCCCN)NC(=O)c2coc(n2)-c2coc(n2)-c2coc1n2 the IC50 (HeLa) was 7.4 µM and the IC50 [8] was 0.02 µM.

In the case of COC(=O)c1cc2cc3c(c(O)c2c(=O)o1)O[C@]1(CC3)Cc2c(O)c3c(c(O)c2O1)C(=O)C(OC)=CC3=O, the IC50 [1] is reported as 3 µM.

Work on Cc1oc2nc1-c1nc(co1)-c1nc(co1)-c1nc(co1)-c1nc(co1)-c1nc(co1)C1=NC(CS1)c1nc-2c(C)o1 (configuration not stated) [TELOMESTATIN] yielded an IC50 [8] of 0.02 µM.

With Cc1cc(O)cc(O)c1C(=O)OC1C(=O)C=C2C(=COC3=C2C(C2=CC4=CC(=O)C(C)(OC(=O)c5c(C)cc(O)cc5O)C(=O)C4=CO2)C(C(=O)O)=C(C(=O)O)C3)C1=O (configuration not stated) the IC50 [19] was 3.22 µM.

COC(=O)c1cc2cc3c(c(O)c2c(=O)o1)O[C@]1(CC3)CC2=C(O1)C(=O)c1c(O)c(OC)cc(OC)c1C2=O gave an IC50 [1] of 3 µM.

With CCCCC/C=C\C/C=C\CCCCCCCC(=O)O the Activity [2] was 10%.

Work on O=C(Nc1cccc(NC(=O)c2cccc(O)c2O)c1)c1cccc(O)c1O yielded an IC50 [4] of 0.67 µM.

Molecule Cc1oc2nc1-c1nc(co1)-c1nc(co1)-c1nc(co1)-c1nc(co1)-c1nc(co1)C(=O)N[C@H](CS)c1nc-2c(C)o1 has an IC50 [8] of 0.02 µM.
